Results published in patent publication US6358885B1, “Substituted phenylheterocyclic herbicides” (Mississippi State University, priority 1992, dated 2002).

Legend:
Test in all cases: Test B preemergence/postemergence greenhouse plant response rating 0 to 10
barley = type: in vivo, Hordeum vulgare; conditions: for Plant response rating, Barley: 0 to 10 scale
Summary of the method: (§1)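 Postemergence treatment of plants two to eighteen cm tall ran alongside preemergence treatment of planted seed, each using compound in a non-phytotoxic solvent.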

barnyardgrass = type: in vivo, Echinochloa crus-galli; conditions: for Plant response rating, Barnyardgrass: 0 to 10 scale
Summary of the method: as §1

bedstraw = type: in vivo, Galium aparine; conditions: for Plant response rating, Bedstraw: 0 to 10 scale
Summary of the method: as §1

blackgrass = type: in vivo, Alopecurus myosuroides; conditions: for Plant response rating, Blackgrass: 0 to 10 scale
Summary of the method: as §1

cheatgrass = type: in vivo, Bromus secalinus; conditions: for Plant response rating, Cheatgrass: 0 to 10 scale
Summary of the method: as §1

chickweed = type: in vivo, Stellaria media; conditions: for Plant response rating, Chickweed: 0 to 10 scale
Summary of the method: as §1

cocklebur = type: in vivo, Xanthium pensylvanicum; conditions: for Plant response rating, Cocklebur: 0 to 10 scale
Summary of the method: as §1

corn = type: in vivo, Zea mays; conditions: for Plant response rating, Corn: 0 to 10 scale
Summary of the method: as §1

cotton = type: in vivo, Gossypium hirsutum; conditions: for Plant response rating, Cotton: 0 to 10 scale
Summary of the method: as §1

crabgrass = type: in vivo, Digitaria spp.; conditions: for Plant response rating, Crabgrass: 0 to 10 scale
Summary of the method: as §1

giant foxtail = type: in vivo, Setaria faberii; conditions: for Plant response rating, Giant foxtail: 0 to 10 scale
Summary of the method: as §1

lambsquarters = type: in vivo, Chenopodium album; conditions: for Plant response rating, Lambsquarter: 0 to 10 scale
Summary of the method: as §1

morningglory = type: in vivo, Ipomoea hederacea; conditions: for Plant response rating, Morningglory: 0 to 10 scale
Summary of the method: as §1

rape = type: in vivo, Brassica napus; conditions: for Plant response rating, Rape: 0 to 10 scale
Summary of the method: as §1

rice = type: in vivo, Oryza sativa; conditions: for Plant response rating, Rice: 0 to 10 scale
Summary of the method: as §1

sorghum = type: in vivo, Sorghum bicolor; conditions: for Plant response rating, Sorghum: 0 to 10 scale
Summary of the method: as §1

soybean = type: in vivo, Glycine max; conditions: for Plant response rating, Soybean: 0 to 10 scale
Summary of the method: as §1

sugar beet = type: in vivo, Beta vulgaris; conditions: for Plant response rating, Sugar beet: 0 to 10 scale
Summary of the method: as §1

velvetleaf = type: in vivo, Abutilon theophrasti; conditions: for Plant response rating, Velvetleaf: 0 to 10 scale
Summary of the method: as §1

wheat = type: in vivo, Triticum aestivum; conditions: for Plant response rating, Wheat: 0 to 10 scale
Summary of the method: as §1

wild buckwheat = type: in vivo, Polygonum convolvulus; conditions: for Plant response rating, Wild buckwheat: 0 to 10 scale
Summary of the method: as §1

wild oat = type: in vivo, Avena fatua; conditions: for Plant response rating, Wild oat: 0 to 10 scale
Summary of the method: as §1

purple nutsedge = type: in vivo, Cyperus rotundus; conditions: for Plant response rating, Nutsedge: 0 to 10 scale
Summary of the method: as §1

Compound: COCOc1cc(-c2nn3c(c2Br)CCCC3)c(F)cc1Cl [Compound 65]
- Plant response rating, Barley (barley; POSTEMERGENCE, Rate 50 g/ha): 3
- Plant response rating, Barley (barley; PREEMERGENCE, Rate 50 g/ha): 0
- Plant response rating (0 to 10 scale), Barley (barley; PREEMERGENCE, Rate 200 g/ha): 2
- Plant response rating, Barley (barley; Rate 200 g/ha, POSTEMERGENCE): 6
- Plant response rating, Barnyardgrass (barnyardgrass; POSTEMERGENCE, Rate 50 g/ha): 7
- Plant response rating, Barnyardgrass (barnyardgrass; PREEMERGENCE, Rate 50 g/ha): 4
- Plant response rating (0 to 10 scale), Barnyardgrass (barnyardgrass; PREEMERGENCE, Rate 200 g/ha): 9
- Plant response rating, Barnyardgrass (barnyardgrass; Rate 200 g/ha, POSTEMERGENCE): 9
- Plant response rating, Bedstraw (bedstraw; POSTEMERGENCE, Rate 50 g/ha): 10
- Plant response rating, Bedstraw (bedstraw; PREEMERGENCE, Rate 50 g/ha): 5
- Plant response rating (0 to 10 scale), Bedstraw (bedstraw; PREEMERGENCE, Rate 200 g/ha): 5
- Plant response rating, Bedstraw (bedstraw; Rate 200 g/ha, POSTEMERGENCE): 10
- Plant response rating, Blackgrass (blackgrass; POSTEMERGENCE, Rate 50 g/ha): 7
- Plant response rating, Blackgrass (blackgrass; PREEMERGENCE, Rate 50 g/ha): 7
- Plant response rating (0 to 10 scale), Blackgrass (blackgrass; PREEMERGENCE, Rate 200 g/ha): 7
- Plant response rating, Blackgrass (blackgrass; Rate 200 g/ha, POSTEMERGENCE): 7
- Plant response rating, Cheatgrass (cheatgrass; POSTEMERGENCE, Rate 50 g/ha): 3
- Plant response rating, Cheatgrass (cheatgrass; PREEMERGENCE, Rate 50 g/ha): 2
- Plant response rating (0 to 10 scale), Cheatgrass (cheatgrass; PREEMERGENCE, Rate 200 g/ha): 4
- Plant response rating, Cheatgrass (cheatgrass; Rate 200 g/ha, POSTEMERGENCE): 6
- Plant response rating, Chickweed (chickweed; POSTEMERGENCE, Rate 50 g/ha): 5
- Plant response rating, Chickweed (chickweed; PREEMERGENCE, Rate 50 g/ha): 1
- Plant response rating (0 to 10 scale), Chickweed (chickweed; PREEMERGENCE, Rate 200 g/ha): 3
- Plant response rating, Chickweed (chickweed; Rate 200 g/ha, POSTEMERGENCE): 9
- Plant response rating, Cocklebur (cocklebur; POSTEMERGENCE, Rate 50 g/ha): 10
- Plant response rating, Cocklebur (cocklebur; PREEMERGENCE, Rate 50 g/ha): 0
- Plant response rating (0 to 10 scale), Cocklebur (cocklebur; PREEMERGENCE, Rate 200 g/ha): 4
- Plant response rating, Cocklebur (cocklebur; Rate 200 g/ha, POSTEMERGENCE): 10
- Plant response rating, Corn (corn; POSTEMERGENCE, Rate 50 g/ha): 4
- Plant response rating, Corn (corn; PREEMERGENCE, Rate 50 g/ha): 0
- Plant response rating (0 to 10 scale), Corn (corn; PREEMERGENCE, Rate 200 g/ha): 4
- Plant response rating, Corn (corn; Rate 200 g/ha, POSTEMERGENCE): 5
- Plant response rating, Cotton (cotton; POSTEMERGENCE, Rate 50 g/ha): 10
- Plant response rating, Cotton (cotton; PREEMERGENCE, Rate 50 g/ha): 0
- Plant response rating (0 to 10 scale), Cotton (cotton; PREEMERGENCE, Rate 200 g/ha): 4
- Plant response rating, Cotton (cotton; Rate 200 g/ha, POSTEMERGENCE): 10
- Plant response rating, Crabgrass (crabgrass; POSTEMERGENCE, Rate 50 g/ha): 4
- Plant response rating, Crabgrass (crabgrass; PREEMERGENCE, Rate 50 g/ha): 2
- Plant response rating (0 to 10 scale), Crabgrass (crabgrass; PREEMERGENCE, Rate 200 g/ha): 2
- Plant response rating, Crabgrass (crabgrass; Rate 200 g/ha, POSTEMERGENCE): 7
- Plant response rating, Giant foxtail (giant foxtail; POSTEMERGENCE, Rate 50 g/ha): 5
- Plant response rating, Giant foxtail (giant foxtail; PREEMERGENCE, Rate 50 g/ha): 6
- Plant response rating (0 to 10 scale), Giant foxtail (giant foxtail; PREEMERGENCE, Rate 200 g/ha): 10
- Plant response rating, Giant foxtail (giant foxtail; Rate 200 g/ha, POSTEMERGENCE): 8
- Plant response rating, Lambsquarter (lambsquarters; POSTEMERGENCE, Rate 50 g/ha): 10
- Plant response rating, Lambsquarter (lambsquarters; PREEMERGENCE, Rate 50 g/ha): 10
- Plant response rating (0 to 10 scale), Lambsquarter (lambsquarters; PREEMERGENCE, Rate 200 g/ha): 10
- Plant response rating, Lambsquarter (lambsquarters; Rate 200 g/ha, POSTEMERGENCE): 10
- Plant response rating, Morningglory (morningglory; POSTEMERGENCE, Rate 50 g/ha): 10
- Plant response rating, Morningglory (morningglory; PREEMERGENCE, Rate 50 g/ha): 0
- Plant response rating (0 to 10 scale), Morningglory (morningglory; PREEMERGENCE, Rate 200 g/ha): 2
- Plant response rating, Morningglory (morningglory; Rate 200 g/ha, POSTEMERGENCE): 10
- Plant response rating, Rape (rape; POSTEMERGENCE, Rate 50 g/ha): 8
- Plant response rating, Rape (rape; PREEMERGENCE, Rate 50 g/ha): 0
- Plant response rating (0 to 10 scale), Rape (rape; PREEMERGENCE, Rate 200 g/ha): 10
- Plant response rating, Rape (rape; Rate 200 g/ha, POSTEMERGENCE): 9
- Plant response rating, Rice (rice; POSTEMERGENCE, Rate 50 g/ha): 5
- Plant response rating, Rice (rice; PREEMERGENCE, Rate 50 g/ha): 1
- Plant response rating (0 to 10 scale), Rice (rice; PREEMERGENCE, Rate 200 g/ha): 3
- Plant response rating, Rice (rice; Rate 200 g/ha, POSTEMERGENCE): 6
- Plant response rating, Sorghum (sorghum; POSTEMERGENCE, Rate 50 g/ha): 6
- Plant response rating, Sorghum (sorghum; PREEMERGENCE, Rate 50 g/ha): 0
- Plant response rating (0 to 10 scale), Sorghum (sorghum; PREEMERGENCE, Rate 200 g/ha): 0
- Plant response rating, Sorghum (sorghum; Rate 200 g/ha, POSTEMERGENCE): 7
- Plant response rating, Soybean (soybean; PREEMERGENCE, Rate 50 g/ha): 0
- Plant response rating (0 to 10 scale), Soybean (soybean; PREEMERGENCE, Rate 200 g/ha): 2
- Plant response rating, Soybean (soybean; Rate 200 g/ha, POSTEMERGENCE): 8
- Plant response rating, Sugar beet (sugar beet; POSTEMERGENCE, Rate 50 g/ha): 10
- Plant response rating, Sugar beet (sugar beet; PREEMERGENCE, Rate 50 g/ha): 9
- Plant response rating (0 to 10 scale), Sugar beet (sugar beet; PREEMERGENCE, Rate 200 g/ha): 10
- Plant response rating, Sugar beet (sugar beet; Rate 200 g/ha, POSTEMERGENCE): 10
- Plant response rating, Velvetleaf (velvetleaf; POSTEMERGENCE, Rate 50 g/ha): 10
- Plant response rating, Velvetleaf (velvetleaf; PREEMERGENCE, Rate 50 g/ha): 9
- Plant response rating (0 to 10 scale), Velvetleaf (velvetleaf; PREEMERGENCE, Rate 200 g/ha): 9
- Plant response rating, Velvetleaf (velvetleaf; Rate 200 g/ha, POSTEMERGENCE): 10
- Plant response rating, Wheat (wheat; POSTEMERGENCE, Rate 50 g/ha): 6
- Plant response rating, Wheat (wheat; PREEMERGENCE, Rate 50 g/ha): 0
- Plant response rating (0 to 10 scale), Wheat (wheat; PREEMERGENCE, Rate 200 g/ha): 5
- Plant response rating, Wheat (wheat; Rate 200 g/ha, POSTEMERGENCE): 5
- Plant response rating, Wild buckwheat (wild buckwheat; POSTEMERGENCE, Rate 50 g/ha): 10
- Plant response rating, Wild buckwheat (wild buckwheat; PREEMERGENCE, Rate 50 g/ha): 10
- Plant response rating (0 to 10 scale), Wild buckwheat (wild buckwheat; PREEMERGENCE, Rate 200 g/ha): 10
- Plant response rating, Wild buckwheat (wild buckwheat; Rate 200 g/ha, POSTEMERGENCE): 10
- Plant response rating, Wild oat (wild oat; POSTEMERGENCE, Rate 50 g/ha): 7
- Plant response rating, Wild oat (wild oat; PREEMERGENCE, Rate 50 g/ha): 2
- Plant response rating (0 to 10 scale), Wild oat (wild oat; PREEMERGENCE, Rate 200 g/ha): 8
- Plant response rating, Wild oat (wild oat; Rate 200 g/ha, POSTEMERGENCE): 7
- Plant response rating, Nutsedge (purple nutsedge; POSTEMERGENCE, Rate 50 g/ha): 3
- Plant response rating, Nutsedge (purple nutsedge; PREEMERGENCE, Rate 50 g/ha): 0
- Plant response rating (0 to 10 scale), Nutsedge (purple nutsedge; PREEMERGENCE, Rate 200 g/ha): 0
- Plant response rating, Nutsedge (purple nutsedge; Rate 200 g/ha, POSTEMERGENCE): 4
